Data on 53 compounds can be found in patent publication US12065485B2, “Treatment of staphylococcal disorders” (priority 2013, dated 2024).

Counter-ions that a name gives are not always drawn.

The first experiment has as its system P3 promoter (RNAIII / delta-toxin expression). The experiment can be described thus: USA300-P3-Luc reporter screen for inhibition of RNAIII induction (P3 promoter activation by AIP). The note with it: 40 μM compound, 2 hours at 37° C., luminescence; relative to positive control (USA400 inhibitory AIP supernatant). Type of experiment: cell-based, Staphylococcus aureus. The protocol: Staphylococcus aureus pulse-field gel electrophoresis (PFGE) type USA300 transformed with a plasmid containing the P3 promoter followed by the luciferase gene (USA300-P3-Luc) was grown in tryptic soy broth (TSB) to […] (5×10^8 CFU/mL), as determined by optical density at 600 nm, from overnight cultured bacteria and harvested via centrifugation (4,000×g, 4° C., 5 minutes). Supernatant was removed and the bacterial pellet was washed twice with an equal volume of PBS. Bacteria were suspended in PBS at 5×10^8 CFU/mL, as confirmed by plating serial dilutions onto TSB. 2×10^6 CFU washed USA300-P3-Luc was incubated with wt USA300 8-hour filtered supernatant containing stimulatory auto-inducing peptide (AIP) at a final dilution of 1:10 and 40 μM each compound in a total of 40 μL/well of TSB on a 384-well plate. The S. aureus two-component agr system induces delta-toxin expression via expression of AIP at stationary growth phase and was used to stimulate activation of the P3 promoter. Alternatively, AIP produced by a different S. aureus strain, PFGE type USA400, acts to inhibit delta-toxin expression in USA300. As a positive control, samples were incubated with USA400 8-hour filtered supernatant containing inhibitory AIP at a final dilution of 1:10 instead of test compound. Samples were incubated at 37° C. for 2 hours, then analyzed for luminescence and optical density at 600 nm. Percent Inhibition was determined by the following formula: Percent inhibition=100×(LumNo Inhibitor−Lumcompound)/(LumNo Inhibitor.−LumPositive control). Inhibitory compounds suitable for use in methods of inhibiting skin inflammation according to the disclosure were identified (Table 2) based on at least a 40% inhibition relative to the positive control, minimal reduction in growth as determined by optical density at 600 nm, and relatively low promiscuity (<10%) in relation to other high-throughput assays performed using these compounds.
In the case of `NCCCNCCCCNC(=O)C(NC(=O)CCCCCN=C(N)N)c1ccc(Br)cc1` (centres unmarked) [4Br-AHX], the % Inhibition – broadly, the percentage by which the read-out fell short of the control – turned out to be 55.8%. On the same count and under the same terms, as for `COc1ccc(CNC(=O)Nc2ncc([N+](=O)[O-])s2)cc1` [361549, GSK-3b Inhibitor VIII, GSK-3b Inhibitor VIII], the figure is 73.7%. Same read-out and setting: then `CC(=O)Oc1cccc2c1C(=O)c1c(OC(C)=O)cc(C(=O)O)cc1C2=O` [DIACERIN], with 76%.

For `O=c1c(O)c(-c2ccccc2)oc2cc(O)cc(O)c12` [Galangine], the “% Inhibition” value is 79.5%. The same measure, in the same setting: then `O=C(O)c1ccccc1Nc1cccc2c1C(=O)c1cccc(Nc3ccccc3C(=O)O)c1C2=O` [NCI16221], with 49.9%; and `CCCC[C@@H](CC)COC(=O)C(C#N)=C(c1ccccc1)c1ccccc1` [OCTOCRYLENE | EUSOLEX, OCTOCRYLENE], with 97.9%.

As to `C[C@@H]1CC[C@@]2(OC1)O[C@H]1C[C@H]3[C@@H]4CC[C@@H]5C[C@@H](O)CC[C@]5(C)[C@H]4CC[C@]3(C)[C@H]1[C@@H]2C` [SMILAGENIN], the “% Inhibition” value was determined as 75.3%. Regarding `Cc1ccc(S(=O)(=O)N[C@@H](Cc2ccccc2)C(=O)CCl)cc1` [TPCK], the “% Inhibition” value is given as 87.8%.

The same experiment, now with this note: Staphylococcus aureus, USA300, 2 h.
Consider `C=C1C[C@]23C[C@@]1(O)CC[C@H]2[C@@]12C=C[C@H](O)[C@@](C)(C(=O)O1)[C@H]2[C@@H]3C(=O)O` [G[…]], for which the inhibition (commonly the percentage by which the read-out fell short of the control) at 40 µM is 60.5%.

Staying with this experiment, now noted: Staphylococcus aureus; 40 μM compound, 2 hours at 37° C., luminescence; relative to positive control (USA300 inhibitory AIP supernatant); read-out: % Inhibition.
`CC(C)c1ccc2c(c1)c(SC(C)(C)C)c(CC(C)(C)C(=O)O)n2Cc1ccc(Cl)cc1` [1H-Indole-2-propanoic acid, 1-[(4-chlorophenyl)methyl]-3-[(1,1-dimethylethyl)thio]-Alpha,Alpha-dimethyl-5-(1-methylethyl)-]: the inhibition at 40 µM was 86.3%.

As to `O=C(/C=C/c1ccc(O)cc1)c1ccccc1O` [2′,4-DIHYDROXYCHALCONE], the inhibition at 40 µM was 71.9%. On the same count and under the same terms, then `O=C(O)c1cc2cc(Cl)ccc2[nH]1` [5-CHLOROINDOLE-2-CARBOXYLIC ACID], with 47.8%; and `NCCOB(c1ccccc1)c1ccccc1` [AMINOETHOXYDIPHENYLBORANE], with 82.1%. Same read-out and setting: then `O=C(O)Cc1ccccc1Nc1c(Cl)cccc1Cl` [Benzeneacetic acid, 2-[(2,6-dichlorophenyl)amino]-, monosodium salt], with 65.1%. Turning to `CC(C)c1cc2c(c(O)c1O)[C@@]1(C(=O)O)CCCC(C)(C)[C@@H]1CC2` [CARNOSIC ACID], the inhibition at 40 µM turned out to be 95.8%. As for `O=C1C(Cl)=C(Cl)C(=O)C(Cl)=C1Cl` [CHLORANIL], the inhibition at 40 µM turned out to be 47.7%. As to `Cc1cc(O)c2c(c1)C(=O)c1cccc(O)c1C2=O` [CHRYSOPHANOL], the inhibition at 40 µM was 47.2%. On the same count and under the same terms, then `COC(=O)[C@H](c1ccccc1Cl)N1CCc2sccc2C1` [CLOPIDOGREL SULFATE], with 69.4%; and `CCCc1c(OCCCCc2nnn[nH]2)ccc(C(C)=O)c1O` [CPD000058555_LY 171883, LY 171883], with 48.7%; and `O=C(c1ccc(F)cc1)C1CCN(CCn2c(=S)[nH]c3ccccc3c2=O)CC1` [CPD000466283_Altanserin, Altanserin], with 59%. The same measure, in the same setting: then `CCOc1cc(CC(=O)N[C@@H](CC(C)C)c2ccccc2N2CCCCC2)ccc1C(=O)O` [CPD000466305_REPAGLINIDE, REPAGLINIDE], with 49%. On the same count and under the same terms, as for `COc1cc(C)c(Cc2cnc(N)nc2N)cc1OC` [CPD000466374_ORMETOPRIM, ORMETOPRIM], the figure is 53.2%; as for `CC(C)c1nc(CN(C)C(=O)N[C@H](C(=O)N[C@@H](Cc2ccccc2)C[C@H](O)[C@H](Cc2ccccc2)NC(=O)OCc2cncs2)C(C)C)cs1` [CPD000466395_RITONAVIR, RITONAVIR], 85.7%; as for `Cc1ccsc1C(=CCCN1CCC[C@@H](C(=O)O)C1)c1sccc1C` [CPD000469176_TIAGABINE HCl, TIAGABINE HCl], 69.7%. Consider `C#C[C@]1(O)CC[C@H]2[C@@H]3CCC4=Cc5oncc5C[C@]4(C)[C@H]3CC[C@@]21C` [DANAZOL], for which the inhibition at 40 µM is 47.4%. Still for that read-out and setting: as for `O=C1c2cccc(O)c2C(=O)c2c(O)cccc21` [DANTRON], the figure is 76.1%; as for `c1ccc2c(c1)sc1ccccc12` [DIBENZOTHIOPHENE], 50.7%. The same measure, in the same setting: then `C/C=C(/C(=C/C)c1ccc(O)cc1)c1ccc(O)cc1` [DIENESTROL], with 90.8%; and `CN1C[C@H](C(=O)N[C@]2(C)O[C@@]3(O)[C@@H]4CCCN4C(=O)[C@H](Cc4ccccc4)N3C2=O)C[C@@H]2c3cccc4[nH]cc(c34)C[C@H]21` [DIHYDROERGOTAMINE MESYLATE], with 52.2%.

As to `C=C1CC[C@H](O)C/C1=C/C=C1\CCC[C@]2(C)[C@@H]([C@H](C)/C=C/[C@H](C)C(C)C)CC[C@@H]12` [ERGOCALCIFEROL], the inhibition at 40 µM was 51.9%. Still for that read-out and setting: then `Cc1c(Nc2ncccc2C(=O)O)cccc1C(F)(F)F` [FLUNIXIN MEGLUMINE | BANAMINE, FLUNIXIN MEGLUMINE], with 69.2%; and `Oc1cc2c(cc1O)C1c3ccc(O)c(O)c3OCC1(O)C2` (centres unmarked) [HAEMATOXYLIN], with 62.9%; and `CC[C@H](c1ccc(O)cc1)[C@@H](CC)c1ccc(O)cc1` [HEXESTROL], with 99.9%. The same measure, in the same setting: as for `O=C(NC(=O)c1c(F)cccc1F)Nc1cc(Cl)c(OC(F)(F)C(F)C(F)(F)F)cc1Cl` (centres unmarked) [LUFENURON | PROGRAM, LUFENURON], the figure is 55.8%; as for `Cc1ccc(Nc2c(F)cccc2Cl)c(CC(=O)O)c1` [LUMIRACOXIB | PREXIGE, LUMIRACOXIB], 60%; as for `O=C(O)c1nn(Cc2ccc(Cl)cc2Cl)c2ccccc12` [Lonidamine], 71.3%. With `CC(=O)O[C@]1(C(C)=O)CC[C@H]2[C@@H]3C=C(C)C4=CC(=O)CC[C@]4(C)[C@H]3CC[C@@]21C` [MEGESTROL ACETATE], the inhibition at 40 µM is 46.5%. On to `COC(=O)CC[C@@H](C)[C@H]1CC[C@H]2[C@@H]3CC[C@@H]4C[C@H](O)CC[C@]4(C)[C@H]3C[C@H](O)[C@]12C` [METHYL DEOXYCHOLATE], for which the inhibition at 40 µM worked out at 78.9%. On the same count and under the same terms, then `CO/N=C1\C[C@]2(C[C@@H]3C[C@@H](C/C=C(\C)C[C@@H](C)/C=C/C=C4\CO[C@@H]5[C@H](O)C(C)=C[C@@H](C(=O)O3)[C@]45O)O2)O[C@H](/C(C)=C/C(C)C)[C@H]1C` [MOXIDECTIN | CYDECTIN, MOXIDECTIN], with 58.9%; and `O=C(N/N=C/c1ccc([N+](=O)[O-])o1)c1cc([N+](=O)[O-])cc([N+](=O)[O-])c1O` [NIFURSOL], with 63.9%. Still for that read-out and setting: as for `C#C[C@]1(O)CC[C@H]2[C@@H]3CCC4=CC(=O)CC[C@@H]4[C@H]3CC[C@@]21C` [NORETHINDRONE], the figure is 52.4%.

With `COc1ccnc(C[S+]([O-])c2nc3ccc(OC(F)F)cc3[nH]2)c1OC` (centres unmarked) [PANTOPRAZOLE | PROTONIX, PANTOPRAZOLE], the inhibition at 40 µM turned out to be 52.8%. Take `Nc1ccc(/N=N/c2ccccc2)c(N)n1` [PHENAZOPYRIDINE HYDROCHLORIDE]: the inhibition at 40 µM came to 75.5%. As to `O=C1OC(c2ccc(O)cc2)(c2ccc(O)cc2)c2ccccc21` [PHENOLPHTHALEIN], the inhibition at 40 µM was found to be 72.4%. The same measure, in the same setting: then `COc1ccc(-c2c(O)c3c(OC)c4c(cc3oc2=O)OC(C)(C)C=C4)cc1` [ROBUSTIC ACID], with 96.9%; and `Cc1ccc(Cl)c(Nc2ccccc2C(=O)O)c1Cl` [SODIUM MECLOFENAMATE], with 90.9%. Turning to `Oc1c2ccccc2c2c3c(cccc13)N=N2` [SP 600125], the inhibition at 40 µM was 45.3%.

Regarding `O=C(O)c1ccccc1Nc1cccc(OCc2ccc3ccccc3n2)c1` [SR 2640], the inhibition at 40 µM was determined as 98.7%.

On to `CSc1ccc(/C=C2/C(C)=C(CC(=O)O)c3cc(F)ccc32)cc1` [Sulindac Sulfide], for which the inhibition at 40 µM was 72.4%. As to `CCC(=O)O[C@H]1CC[C@H]2[C@@H]3CCC4=CC(=O)CC[C@]4(C)[C@H]3CC[C@]12C` [TESTOSTERONE PROPIONATE], the inhibition at 40 µM stood at 65.7%.

Take `C[C@H](CCC(=O)O)[C@H]1CC[C@H]2[C@@H]3CC[C@@H]4CCCC[C@]4(C)[C@H]3CC[C@]12C` [URSOCHOLANIC ACID]: the inhibition at 40 µM is 61.3%.

On to `Oc1nc(-c2ccc(C(F)(F)F)cc2)nc2c1CSCC2` [XAV939], for which the inhibition at 40 µM is 53.4%. Regarding `Cc1cc(CC(=O)O)n(C)c1C(=O)c1ccc(Cl)cc1` [ZOMEPIRAC SODIUM], the inhibition at 40 µM was 64.8%.
